Reference: patent US6716613B1, “Metalloprotease having aggrecanase activity” (Yamanouchi Pharmaceutical Co., Ltd., priority 1999, dated 2004)
pIC50: −log10 of the molar value.

Tested on: rabbit knee joint cartilage primary culture cells
Assay: Proteoglycan degradation/release in rabbit knee joint cartilage primary culture cells (35S label)
Type: cell-based
Details: compound added just before stimulation with 10 μM of all-trans retinoic acid; for pIC50: Oryctolagus cuniculus, read-out: proteoglycan degradation inhibition action (IC50)
Description: After killing a rabbit (Japanese white species, male, 1.0 to 1.5 kg) under excess anesthesia, a knee joint was excised and the cartilage layer on the joint surface was removed and finely cut using a surgical knife. The cut pieces were treated with trypsin-EDTA (0.25%-1 mM; mfd. by GIBCO-BRL) at 37° C. for 1 hour and then centrifuged at 1,500 rpm for 5 minutes, and the resulting precipitate was washed with DMEM. This was treated with collagenase A (0.15%; Boehringer-Mannheim)/DMEM at 37° C. for 3 to 4 hours, and then a nylon mesh filter (100 μm, mfd. by Falcon)-passed fraction was centrifuged at 1,500 rpm for 5 minutes to effect precipitation of cartilage cells. The cells were thoroughly washed with DMEM/10% FBS medium, suspended in DMEM/10% FBS medium to a density of 2×10^5 cells/ml and then inoculated in 200 μl/well portions into an I type collagen-coated 96 well plate (mfd. by Asahi Technoglass). Three days thereafter, the medium was changed to 200 μof DMEM/10% FBS medium containing 50 μg/ml of ascorbic acid (ascorbic acid medium hereinafter), and the culturing was continued for 3 days. When an I type collagen-coated 6 well plate (Asahi Technoglass) was used, the cell suspension was inoculated in 6 ml/well portions and cultured by carrying out the same medium exchange. These cells were used in the following test.
The rabbit knee joint cartilage primary culture cells of 96 well plate described in Example 11-1 were cultured for 2 days using 200 μl of the ascorbic acid medium supplemented with 10 μCi/ml in final concentration of Na2^35SO4 and labeled therewith, washed 3 times with 200 μl of the ascorbic acid medium and then cultured for 1 day using 200 μl of the ascorbic acid medium. After stimulation with IL-1β or all-trans retinoic acid and subsequent 0, 24, and 48 hours of culturing, the culture supernatants were recovered in 20 μl portions, and the radioactivity was measured using Top Count (mfd. by Packard).
Each of the compounds A, B, C and D selected by the screening system of Example 10-2 was added to the proteoglycan degradation system of rabbit knee joint cartilage primary culture cells just before the stimulation with 10 μM of all-trans retinoic acid, and their proteoglycan degradation inhibitory activities were examined.

pIC50	Structure (SMILES)	inhibition of proteoglycan degradation (in words, FIG. 8)
	CNC(=O)C(Cc1ccc(OC)cc1)NC(=O)C(CC(C)C)C(CS)C(=O)NO (stereo not drawn) [compound A, N-^α-[2-(1-hydroxycarbamoyl-2-sulfanylethyl)-4-methylpentanoyl]-N,O-dimethyltyrosineamide]	inhibition of proteoglycan degradation in a concentration-dependent manner
5.20	CNC(=O)[C@H](Cc1ccc(OC)cc1)NC(=O)C(CC(C)C)C(CSc1ccccc1)C(=O)NO (stereo partly drawn) [compound C, N^α-[2-(1-hydroxycarbamoyl-2-phenylsulfanylethyl)-4-methylpentanoyl]-N,O-dimethyltyrosineamide]	
5.39	CNC(=O)[C@H](Cc1ccc(OC)cc1)NC(=O)C(CC(C)C)C(CSC)C(=O)NO (stereo partly drawn) [compound D, N^α-[2-(1-hydroxycarbamoyl-2-methylsulfanylethyl)-4-methylpentanoyl]-N,O-dimethyltyrosineamide]	
